According to patent publication US20220226329A1, “METHOD TO INDUCE HEMATOPOIETIC CHIMERISM” (The General Hospital Corporation, priority 2019, published 2022):
Where “and” joins values, the source holds several entries; their conditions need not be identical. Equal entries are not always repeated. Entries after “also recorded” stand apart in the source; their conditions may differ. One block for each molecule: values may come before it.

Tests used:
Cynomolgus monkeys [1] = test: Hematopoietic chimerism after combined kidney and bone marrow transplantation (CKBMT), flow cytometry of peripheral blood; assay type: in vivo; conditions: recipients with chimerism/total
Procedure: (§1) To evaluate whether Bcl-2 inhibitor (ABT-199) can promote engraftment of hematopoietic stem cells with reduced myelosuppressive therapy, monkeys were treated with various modified regimens with ABT-199 and compared with standard regimen without ABT-199. The basic conditioning regimen consisted of low dose total body irradiation (TBI), thymic irradiation (TI, 7 Gy) and peri-transplant ATG administration. After combined kidney and bone marrow transplantation, the recipients were treated with anti-CD154 mAb for 2 weeks and CyA for 4 weeks, after which no immunosuppression was given (FIG. 1). In Groups C-E, 10 mg/kg of ABT-199 was administered for 11 days (day −4 to day 6). Animals were divided into five groups according to the treatments (Table 1).
(§2) Animals and pair selections: Cynomolgus monkeys, including donor animals, weighing 4-8 kg were used for this study (Charles River Primates, Wilmington, Mass.). Donors and recipients were paired on the basis of ABO blood type compatibility and major histocompatibility complex (MHC) mismatching. MHC characterization was performed as previously described (O'Connor, S. L., et al. 2007, Immunogenetics 59, 449-462.; Pendley, C. J., et al. 2008, Immunogenetics 60, 339-351.). All surgical procedures and postoperative care of animals were performed in accordance with National Institute of Health guidelines for the care and use of primates and were approved by the Massachusetts General Hospital Institutional Animal Care and Use Committee (IACUC).
Following DBMT, the recipients were also treated with anti-CD154 mAb (5c8; 20 mg/kg i.v. on days 0 and 2, 7, and 12 post-DBMT). Cyclosporine A (CyA, Novartis, Basel, Switzerland) was administered intramuscular (IM) on days 0-27 post DBMT, after which no immunosuppression was administered (FIG. 6).
Bone marrow transplantation: Donor bone marrow cells (DBMC) were obtained by multiple aspirations from the iliac crests, humerus head, and vertebral bones under general anesthesia. If the donor animal was sacrificed, DBMC were harvested from the vertebral bones after euthanasia. DBMC (1.0-3.0×10^8 mononuclear cells/kg) were infused intravenously.
Detection of hematopoietic chimerism: A monkey was selected that was either BB7.6 (HLA-B7B40) positive or a H38 (HLA-BW6) positive monkey as a donor and a monkey negative to these antibodies was selected as a recipient. In all experiments, the percentage of cells that stained with each mAb was determined from one color fluorescence histogram and compared with those obtained from donor and pretreatment frozen recipient cells, which were used as positive and negative controls. The percentage of cells considered positive was determined with a cutoff chosen as the fluorescence level at the beginning of the positive peak for the positive control stain and by subtracting the percentage of cells stained with an isotype control. By using forward and 90° light scatter (FSC and SSC, respectively) dot plots, lymphocyte (FSC- and SSC-low), granulocyte (SSC-high), and monocyte (FSC-high but SSC-low) populations were gated, and chimerism was determined separately for each population. Nonviable cells were excluded by propidium iodide (Thermo Fischer Scientific, Grand Island, N.Y.) staining.

Cynomolgus monkeys [2] = test: Renal allograft survival / rejection after CKBMT without maintenance immunosuppression; assay type: in vivo; conditions: per animal
Procedure: as §1, with “After combined kidney and bone marrow transplantation, the recipients were treated with anti-CD154 mAb for 2 weeks and CyA for 4 weeks, after which no immunosuppression was given (FIG. 1).” left out
as §2
Combined kidney and bone marrow transplantation (CKBMT): All recipients were conditioned with total body irradiation (TBI) (1.5 Gy on day −5, relative to the day of CKBMT), local thymic irradiation (TI) (7 Gy on day −1) and equine-derived anti-thymocyte globulin (hATG) (Atgam; Pharmacia and Upjohn, Kalamazoo, Mich.; 50 mg/kg/day i.v. on days −2, −1 and 0). […] Cyclosporine A (CyA, Novartis, Basel, Switzerland) was administered intramuscular (IM) on days 0-27 post DBMT, after which no immunosuppression was administered (FIG. 6).
Kidney transplantation (KTx): Monkeys underwent heterotopic KTx and nephrectomy as previously described (Cosimi, A. B., et al. 1990, Surgery 108, 406-413.).
(§3) Statistical analyses: Statistical analysis was performed with GraphPad PRISM 7.01 (GraphPad Software, Inc, San Diego, Calif.). We used two way ANOVA to compare chimerism, CBC, and T cell subsets. Mantel-Cox log-rank test was used to analyze survival of different groups and. P values lower than 0.05 have been considered statistically significant.

[3] = Blood counts (CBC: white blood cells, neutrophils, platelets, HCT) after conditioning and transplantation; assay type: in vivo, Cynomolgus monkeys
Procedure: Combined kidney and bone marrow transplantation (CKBMT): All recipients were conditioned with total body irradiation (TBI) (1.5 Gy on day −5, relative to the day of CKBMT), local thymic irradiation (TI) (7 Gy on day −1) and equine-derived anti-thymocyte globulin (hATG) (Atgam; Pharmacia and Upjohn, Kalamazoo, Mich.; 50 mg/kg/day i.v. on days −2, −1 and 0). Following DBMT, the recipients were also treated with anti-CD154 mAb (5c8; 20 mg/kg i.v. on days 0 and 2, 7, and 12 post-DBMT). Cyclosporine A (CyA, Novartis, Basel, Switzerland) was administered intramuscular (IM) on days 0-27 post DBMT, after which no immunosuppression was administered (FIG. 6).
as §3

[4] = tested on: hematopoietic stem cells (HSCs); test: Drug-only study: HSC deletion in bone marrow (flow cytometry) and total CFU assay; assay type: in vivo, cynomolgus macaques; conditions: S63845 5 mg/kg x 5 alone
From the text: In certain embodiments, the deletion of CD34^+ cells of the bone marrow can be determined using flow cytometry and comparing the amount of CD34^+ cells of the bone marrow to pre-treatment levels. The reduction in total colony forming units can be measured by a CFU assay and comparing the CFUs to pre-treatment levels.

[5] = tested on: Bcl-2, Bcl-xL, Bcl-w, Mcl-1; conditions: literature statements; cited from earlier work
[6] = tested on: BAX (the BCL-2-associated X protein); test: Intrinsic apoptosis: expression of BAX and other apoptotic markers in peripheral lymphocytes (flow cytometry, CyTOF); assay type: in vivo, Cynomolgus monkeys; conditions: 10 mg/kg x 11 (day -4 to +6), TBI 1.5 Gy regimen, n=3
Procedure: To examine intrinsic apoptosis induced by ABT-199, expression of BAX (the BCL-2-associated X protein), which is pro-apoptotic protein that plays an important role in the mitochondria-dependent apoptotic pathway was assessed.
Flow cytometric and CyTOF analyses: Peripheral blood mononuclear cells (PBMCs) were labeled with a combination of the following mAbs: CD3 (SP34-2), CD4 (L200), CD8 (SK1), CD21 (B-ly4), CD27 (M-T271), CD28 (CD28.2), CD95 (DX2), and IgM (G20-127) (BD Pharmingen, San Jose, Calif.), CD20 (2H7) (Biolegend, Inc., San Diego, Calif.) and FOXP3 (236A/E7) (eBioscience, Inc., San Diego, Calif.). The fluorescence of the stained samples was analyzed using FACSverse (BD Biosciences, San Jose, Calif.) and Accuri flow cytometers (BD PharMingen), and FlowJo software (Tree Star, Inc., Ashland, Oreg.). A CyTOF panel for cynomolgus monkeys was designed. The CyTOF panel consisted of antibodies against various NHP leukocyte markers including CD3, CD4, CD8, Foxp3, CD127, CTLA4, Ki-67, CD95, CD20, CD21, CD27, CD38, CD123, CD31, CD11c, CD25, HLA-DR, CD45RA, CD159 (NKG2a), Granzyme B, Caspase 3/7/9, Bax and Cytochrom C.

[7] = Example 2 Group D: ABT-199 +, TBI 0 Gy, TI 7 Gy
[8] = Example 2 Group E: ABT-199 +, TBI 1.5 Gy, TI 0 Gy
[9] = Example 3 Group E: venetoclax +, TBI 1.5 Gy, TI 7 Gy, CoB Belatacept
[10] = Example 3 Group F: venetoclax +, TBI 1.5 Gy, TI 7 Gy, no CoB
[11] = Example 3 Group G: venetoclax +, TBI 1.5 Gy, TI 0 Gy, CoB aCD154
[12] = Example 3 Group H: venetoclax +, TBI 0 Gy, TI 7 Gy, CoB aCD154

SMILES: CC1(C)CCC(CN2CCN(c3ccc(C(=O)NS(=O)(=O)c4ccc(NCC5CCOCC5)c([N+](=O)[O-])c4)c(Oc4cnc5[nH]ccc5c4)c3)CC2)=C(c2ccc(Cl)cc2)C1 [venetoclax]
Chimerism (Cynomolgus monkeys [1]; Example 2 Group C: ABT-199 10 mg/kg x 11 days (day -4 to 6), TBI 1.5 Gy, TI 7 Gy): 3/3 | Chimerism (Cynomolgus monkeys [1]; [7]): 0/2 | Chimerism (Cynomolgus monkeys [1]; [8]): 2/2 | Chimerism (Cynomolgus monkeys [1]; Example 3 Group D: venetoclax 10 mg/kg x 11 IM, TBI 1.5 Gy, TI 7 Gy, CoB aCD154): 5/5 | Chimerism (Cynomolgus monkeys [1]; [9]): 3/3 | Chimerism (Cynomolgus monkeys [1]; [10]): 0/2 | Chimerism (Cynomolgus monkeys [1]; [11]): 3/3 | Chimerism (Cynomolgus monkeys [1]; [12]): 0/2 | Graft survival (Cynomolgus monkeys [2]; Example 2 Group C: ABT-199 +, TBI 1.5 Gy, TI 7 Gy): > 316 days and > 637 days and > 301 days and > 313 days and > 361 days and > 646 days | Graft survival (Cynomolgus monkeys [2]; [7]): 142 days and 100 days | Graft survival (Cynomolgus monkeys [2]; [8]): 163 days and 100 days and 97 days | Renal Allograft Survival (days) (Cynomolgus monkeys [2]; Example 3 Group D: venetoclax +, TBI 1.5 Gy, TI 7 Gy, CoB aCD154): exceeding 1000 days | Renal Allograft Survival (days) (Cynomolgus monkeys [2]; Example 3 Group D: venetoclax +, TBI 1.5 Gy, TI 7 Gy, CoB aCD154, listed as Venetoclax): > 1071 days and > 735 days and > 313 days | Renal Allograft Survival (days) (Cynomolgus monkeys [2]; [9]): > 574 days and > 308 days | Renal Allograft Survival (days) (Cynomolgus monkeys [2]; Example 3 Group E: venetoclax +, TBI 1.5 Gy, TI 7 Gy, CoB Belatacept, listed as Venetoclax): > 574 days and > 308 days and 237 days | Renal Allograft Survival (days) (Cynomolgus monkeys [2]; [10]): 74 days and 127 days | Renal Allograft Survival (days) (Cynomolgus monkeys [2]; [11]): 97 days and 100 days and 163 days | Renal Allograft Survival (days) (Cynomolgus monkeys [2]; [12]): 120 days and 142 days | Pancytopenia / neutropenia ([3]; Example 2 Group C: ABT-199 +, TBI 1.5 Gy, TI 7 Gy, in contrast to Group A (TBI 3 Gy, no ABT-199)): without development of severe pancytopenia; also recorded: without neutropenia | White blood cell counts, platelet counts, HCT (leukopenia, thrombocytopenia, anemia) ([3]; Example 3 Group D: venetoclax, TBI 1.5 Gy): no leukopenia, thrombocytopenia, or anemia; also recorded: stable

SMILES: Cc1c(-c2c(-c3ccc(F)o3)sc3ncnc(O[C@H](Cc4ccccc4OCc4ccnn4CC(F)(F)F)C(=O)O)c23)ccc(OCCN2CCN(C)CC2)c1Cl [S63845]
HSCs in BM, % of the pretreatment level [4]: 51% | total colony forming units (CFU), % of pretreatment [4]: 45%

SMILES: CN(C)CC[C@H](CSc1ccccc1)Nc1ccc(S(=O)(=O)NC(=O)c2ccc(N3CCN(Cc4ccccc4-c4ccc(Cl)cc4)CC3)cc2)cc1[N+](=O)[O-] [ABT-737]
Selectivity among Bcl-2 family proteins [5]: inhibits Bcl-2, Bcl-xL and Bcl-w but not Mcl-1

Platelet counts (thrombocytopenia) ([3]; 10 mg/kg x 11, after treatment): prolonged thrombocytopenia
SMILES: CC1(C)CCC(c2ccc(Cl)cc2)=C(CN2CCN(c3ccc(C(=O)NS(=O)(=O)c4ccc(N[C@H](CCN5CCOCC5)CSc5ccccc5)c(S(=O)(=O)C(F)(F)F)c4)cc3)CC2)C1 [navitoclax]
Bax expression in T cells, B cells and NK cells compared to pre Rx levels [6]: only observed with venetoclax but not with navitoclax
